Data published in US10752587B2, “Homobispiperidinyl derivatives as liver X receptor beta agonists, compositions and their use” (Merck Sharp & Dohme Corp., priority 2015, dated 2020).
Read-outs that look alike come from different tables or passages of the source.

Experiments:
[1] = biological target: T1, glutathione-S-transferase (GST) tagged LXRbeta LBD (ligand binding domain) (Homo sapiens, UniProt P55055); assay: LanthaScreen TR-FRET Liver X Receptor Coactivator Assay, co-activator recruitment to LXRbeta LBD; assay type: biochemical
T1 construct: purchased Invitrogen pv4658.pps
T1 sequence (P55055 222-460 limits assumed): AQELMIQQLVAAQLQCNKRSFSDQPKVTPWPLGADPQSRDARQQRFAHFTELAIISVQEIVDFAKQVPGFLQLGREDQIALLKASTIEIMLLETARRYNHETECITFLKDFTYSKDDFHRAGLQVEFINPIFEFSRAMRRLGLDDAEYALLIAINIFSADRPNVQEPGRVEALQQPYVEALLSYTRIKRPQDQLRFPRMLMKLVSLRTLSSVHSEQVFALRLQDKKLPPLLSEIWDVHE
Method in brief: (§1)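 Efficacy (Emax) and inflection-point potency were scaled to reference agonist T0901317, acting on both LXR subtypes. Ligand-driven coactivator peptide recruitment was detected by TR-FRET after room-temperature incubation with terbium anti-GST antibody.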

[2] = biological target: T2, glutathione-S-transferase (GST) tagged LXRalpha LBD (ligand binding domain) (Homo sapiens, UniProt Q13133); assay: LanthaScreen TR-FRET Liver X Receptor Coactivator Assay, co-activator recruitment to LXRalpha LBD; assay type: biochemical
T2 construct: purchased Invitrogen pv4655
T2 sequence (Q13133 209-447 limits assumed): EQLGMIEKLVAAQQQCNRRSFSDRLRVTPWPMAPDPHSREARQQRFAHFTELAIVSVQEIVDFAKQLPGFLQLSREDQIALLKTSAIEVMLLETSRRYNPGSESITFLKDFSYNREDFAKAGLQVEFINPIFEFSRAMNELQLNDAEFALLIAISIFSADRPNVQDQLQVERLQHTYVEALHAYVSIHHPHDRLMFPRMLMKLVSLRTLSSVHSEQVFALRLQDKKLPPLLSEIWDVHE
Method in brief: as §1

[3] = efficacy at max dose, in relation to reference dual agonist T0901317, read-out: LXR beta Activity @ max dose (%)
[4] = potency (Inflection Point, IP), co-activator recruitment to LXRbeta LBD, in relation to T0901317, read-out: LXR beta IP
[5] = efficacy at max dose, in relation to reference dual agonist T0901317, read-out: LXR alpha Activity @ max dose (%)
[6] = potency (Inflection Point, IP), co-activator recruitment to LXRalpha LBD, in relation to T0901317, read-out: LXR alpha IP
[7] = potency (Inflection Point, IP), co-activator recruitment to LXRalpha LBD, in relation to T0901317
[8] = efficacy at max dose, in relation to reference dual agonist T0901317

Emax [1, 3] [%]	EC50 [1, 4] [nM]	Emax [2, 5] [%]	EC50 [2, 6] [nM]	LXR alpha IP (nM) [2, 7]	Compound	further results
73	17	21	307		CNC(=O)c1ccc(N2CCC(CC3CCN(C(=O)[C@](O)(c4cccc(C(C)C)c4)C(F)(F)F)CC3)CC2)cc1Cl [Example 7-123, 2-chloro-N-methyl-4-{4-[(1-{(2R)-3,3,3-trifluoro-2-hydroxy-2-[3-(1-methylethyl)phenyl]propanoyl}piperidin-4-yl)methyl]piperidin-1-yl}benzamide]	
122	158	44	1130		CNC(=O)c1ccc(N2CCC(CC3CCN(C(=O)[C@@](O)(c4ccccc4)C(F)(F)F)CC3)CC2)nc1Cl [Example 7-140, 2-chloro-N-methyl-6-[4-({1-[(2S)-3,3,3-trifluoro-2-hydroxy-2-phenylpropanoyl]piperidin-4-yl}methyl)piperidin-1-yl]pyridine-3-carboxamide]	
45	1270	0		NO IP	CCOc1cccc([C@@](O)(C(=O)N2CCC(CC3CN(c4ccc(C(=O)N(C)C)c(OC)n4)C3)CC2)C(F)(F)F)c1 [Example 7-22, 6-[3-({1-[(2R)-2-(3-ethoxyphenyl)-3,3,3-trifluoro-2-hydroxypropanoyl]piperidin-4-yl}methyl)azetidin-1-yl]-2-methoxy-N,N-dimethylpyridine-3-carboxamide]	
106	92	7		NO IP	CCOc1cccc([C@@](O)(C(=O)N2CCC(CC3(C)CCN(c4ccc(C(=O)N(C)C)c(OC)n4)CC3)CC2)C(F)(F)F)c1 [Example 7-24]	
48	97	0		NO IP	CN(C)C(=O)c1ccc(N2CCC(CC3CCN(C(=O)C4(c5ccccc5)CC4)CC3)CC2)cc1Cl [Example 2-9, 2-chloro-N,N-dimethyl-4-[4-({1-[(1-phenyl-cyclopropyl)carbonyl]piperidin-4-yl}methyl)piperidin-1-yl] benzamide]	
30	76	0		NO IP	COc1cc(Cl)cc(C(O)(C(=O)N2CCC(CC3CCN(c4ccc(C(=O)N(C)C)c(Cl)n4)CC3)CC2)C(F)(F)F)c1 (stereo not drawn) [Example 7-105, 2-chloro-6-[4-({1-[2-(3-chloro-5-methoxyphenyl)-3,3,3-trifluoro-2-hydroxypropanoyl]piperidin-4-yl}methyl)piperidin-1-yl]-N,N-dimethylpyridine-3-carboxamide]	
118	38	33	126		CN(C)C(=O)c1ccc(N2CCC(CC3CCN(C(=O)C(O)(c4cc(F)cc(F)c4)C(F)(F)F)CC3)CC2)cc1 (stereo not drawn) [Example 2-126, 4-[4-({1-[2-(3,5-difluoro-phenyl)-3,3,3-trifluoro-2-hydroxy-propanoyl]piperidin-4-yl}methyl)piperidin-1-yl]-N,N-dimethyl-benzamide]	
30	53	0		NO IP	COc1cccc([C@@](O)(C(=O)N2CCC(CC3CCN(c4ccc(C(=O)N(C)C)c(Cl)c4)CC3)CC2)C(C)C)c1 [Example 2-115, 2-chloro-4-[4-({1-[(2R)-2-hydroxy-2-(3-methoxy-phenyl)-3-methyl-butanoyl]piperidin-4-yl}methyl)piperidin-1-yl]-N,N-dimethyl-benzamide]	
			177		CN(C)C(=O)c1ccc(N2CCC(CC3CCN(C(=O)[C@](O)(c4ccccc4)C(F)(F)C(F)(F)F)CC3)CC2)cc1Cl [Example 2-13, 2-chloro-N,N-dimethyl-4-[4-({1-[(2R)-3,3,4,4,4-pentafluoro-2-hydroxy-2-phenylbutanoyl]piperidin-4-yl}methyl)piperidin-1-yl]benzamide]	LXR beta Activity @ max dose (%) [1, 8]: 119%; LXR alpha Activity @ max dose (%) [2, 8]: 56%
95	22	10		NO IP	CCOc1cccc([C@@](O)(C(=O)N2CCC(SC3CCN(c4ccc(C(=O)NC)c(Cl)n4)CC3)CC2)C(F)(F)F)c1 [Example 11-2, 2-chloro-6-[4-({1-[(2R)-2-(3-ethoxyphenyl)-3,3,3-trifluoro-2-hydroxypropanoyl]-piperidin-4-yl}-sulfanyl)piperidin-1-yl]-N-methyl-pyridine-3-carboxamide]	
126	110	43	1060		CN(C)C(=O)c1ccc(N2CCC(CC3CCN(C(=O)C(O)(Cc4ccccc4)C(F)(F)F)CC3)CC2)cc1Cl (stereo not drawn) [Example 2-36, 4-(4-{[1-(2-benzyl-3,3,3-trifluoro-2-hydroxy-propanoyl)piperidin-4-yl]methyl}piperidin-1-yl)-2-chloro-N,N-dimethyl-benzamide]	
					CN(C)C(=O)c1ccc(N2CCC(CC3CCN(S(=O)(=O)c4cccs4)CC3)CC2)cc1Cl [Example 13-4, 2-chloro-N,N-dimethyl-4-(4-{[1-(thiopen-2-ylsulfonyl)piperidin-4-yl]methyl}piperidin-1-yl)benzamide]	EC50 ([1]; co-activator recruitment to GST-LXRbeta LBD, TR-FRET, read-out: LXR beta IP (Inflection Point, potency)): 26 nM; Emax ([1]; efficacy in relation to reference dual agonist T0901317, read-out: LXR beta Activity @ max dose): 67%; EC50 ([2]; co-activator recruitment to GST-LXRalpha LBD, TR-FRET, read-out: LXR alpha IP (Inflection Point, potency)): 264 nM; Emax ([2]; efficacy in relation to reference dual agonist T0901317, read-out: LXR alpha Activity @ max dose): 43%
83	21	23	304		COc1cccc([C@@](O)(C(=O)N2CCC(CC3CCN(c4ccc(C(=O)N(C)C)c(Cl)c4)CC3)CC2)C(F)(F)C(F)(F)F)c1 [Example 2-89, 2-chloro-N,N-dimethyl-4-[4-({1-[(2R)-3,3,4,4,4-pentafluoro-2-hydroxy-2-{3-methoxyphenyl)butanoyl]piperidin-4-yl}methyl)piperidin-1-yl]benzamide]	
69	494	1		NO IP	COc1cccc([C@@](O)(C(=O)N2CCC(CC3CCN(c4ccc(C(=O)N(C)C)c(Cl)c4)CC3)CC2)C(F)(F)F)c1 (single isomer, unassigned) [Example 2-34]	
79	6	29		NO IP	COc1nc(N2CCC(CC3CCN(C(=O)[C@](O)(c4cc(Cl)cc(Cl)c4)C(F)(F)F)CC3)CC2)ccc1C(=O)N(C)C [Example 7-20, 6-[4-({1-[(2R)-2-(3,5-dichlorophenyl)-3,3,3-trifluoro-2-hydroxypropanoyl]piperidin-4-yl}methyl)piperidin-1-yl]-2-methoxy-N,N-dimethylpyridine-3-carboxamide]	
78	9	14		NO IP	CNC(=O)c1ccc(N2CCC(CC3CCN(C(=O)[C@](O)(c4cc(Cl)cc(Cl)c4)C(F)(F)F)CC3)CC2)nc1Cl [Example 7-134, 2-chloro-6-[4-({1-[(2R)-2-(3,5-dichlorophenyl)-3,3,3-trifluoro-2-hydroxypropanoyl]piperidin-4-yl}methyl)piperidin-1-yl]-N-methylpyridine-3-carboxamide]	
74	784	24	4450		CC(C)C(O)(C(=O)N1CCC(CC2CCN(c3ccc(C(=O)N(C)C)c(Cl)c3)CC2)CC1)C(F)(F)F (stereo not drawn) [Example 2-31, 2-chloro-4-[4-({1-[2-hydroxy-3-methyl-2-(trifluoro-methyl)butanoyl]piperidin-4-yl}methyl)piperidin-1-yl]-N,N-dimethyl-benzamide]	
101	47	10		NO IP	COc1cc(Cl)cc([C@](O)(C(=O)N2CCC(CC3CCN(c4ccc(C(=O)N(C)C)c(Cl)n4)CC3)CC2)C(F)(F)F)c1 [Example 7-108, 2-chloro-6-[4-({1-[(2S)-2-(3-chloro-5-methoxyphenyl)-3,3,3-trifluoro-2-hydroxypropanoyl]piperidin-4-yl}methyl)piperidin-1-yl]-N,N-dimethylpyridine-3-carboxamide]	

Compound	Emax [1, 3] [%]	EC50 [1, 4] [nM]	Emax [2, 5] [%]	EC50 [2, 6] [nM]	LXR alpha IP (nM) [2, 7]	further results
COc1cccc([C@@](O)(C(=O)N2CCC(CC3CCN(c4ccc(C(=O)N(C)C)c(Cl)c4)CC3)CC2)C2CC2)c1 [Example 2-114, 2-chloro-4-[4-({1-[(2R)-2-cyclopropyl-2-hydroxy-2-(3-methoxy-phenyl)acetyl]piperidin-4-yl}methyl)piperidin-1-yl]-N,N-dimethyl-benzamide]					NO IP	EC50 ([1]; LXR beta IP (nM), potency (Inflection Point, IP), co-activator recruitment to LXRbeta LBD, in relation to T0901317): 266 nM; Emax ([1]; read-out: LXR beta Activity @ max dose (%)): 19%; Emax ([2]; read-out: LXR alpha Activity @ max dose (%)): 6%
